A word on the GI50: it is the concentration giving 50% growth inhibition. A low value points to greater sensitivity of the cells.

Structures are written as SMILES.

The source of these data is patent publication US20230312577A1, “DUAL KINASE-BROMODOMAIN INHIBITORS” (MONASH UNIVERSITY, priority 2020, published 2023).

This assay concerns OPM2 cells. Briefly: Cell proliferation assay (ViaLight, cellular ATP). It is filed as cell-based. Particulars: Homo sapiens, OPM-2, 120 h, 5 days, 5 μM to 1 nM. As for the experimental part: OPM2 cells (1×10^3) were plated in a 96 well plate. Test compounds were added to cells at final concentrations ranging from 5 μM to 1 nM. They were incubated for 5 days before they were analysed using ViaLight luminescence-based proliferation assays which detect cellular ATP, as per the manufacturer's instructions. All samples were prepared in technical triplicates. Data analysis was performed in GraphPad Prism version 7.00 for Mac OS X, (GraphPad Software, San Diego California USA) in order to calculate the GI50.
Compound `CC(=O)N1c2ccc(-c3cccc(CNC(=O)c4cn5cc(-c6cnc(N)nc6)nc(N6CCOCC6)c5n4)c3)cc2CC[C@@H]1C` [Cpd 011, (S)-N-(3-(1-acetyl-2-methyl-1,2,3,4-tetrahydroquinolin-6-yl)benzyl)-6-(2-aminopyrimidin-5-yl)-8-morpholinoimidazo[1,2-a]pyrazine-2-carboxamide] displayed a GI50 of 100 to 500 nM.

Turning to `CC(=O)N1c2ccc(-c3ccc(C(=O)NCCNC(=O)c4cn5cc(-c6cnc(N)nc6)nc(N6CCOCC6)c5n4)cc3)cc2CC[C@@H]1C` [Cpd 012, (S)-N-(2-(4-(1-Acetyl-2-methyl-1,2,3,4-tetrahydroquinolin-6-yl)benzamido)ethyl)-6-(2-aminopyrimidin-5-yl)-8-morpholinoimidazo[1,2-a]pyrazine-2-carboxamide], the concentration for 50% growth inhibition (GI50) was no more than 100 nM.

Compound `CC(=O)N1c2ccc(-c3ccc(C(=O)N4CCN(Cc5cn6cc(-c7cnc(N)nc7)nc(N7CCOCC7)c6n5)CC4)cc3)cc2CC[C@@H]1C` [Cpd 014, (S)-1-(6-(4-(4-((6-(2-Aminopyrimidin-5-yl)-8-morpholinoimidazo[1,2-a]pyrazin-2-yl)methyl)piperazine-1-carbonyl)phenyl)-2-methyl-3,4-dihydroquinolin-1(2H)-yl)ethan-1-one] registered a GI50 of 100 to 500 nM.

Turning to `CC(=O)N1c2ccc(-c3ccc(CN4CCN(Cc5cn6cc(-c7cnc(N)nc7)nc(N7CCOCC7)c6n5)CC4)cc3)cc2CC[C@@H]1C` [Cpd 015, (S)-1-(6-(4-((4-((6-(2-Aminopyrimidin-5-yl)-8-morpholinoimidazo[1,2-a]pyrazin-2-yl)methyl)piperazin-1-yl)methyl)phenyl)-2-methyl-3,4-dihydroquinolin-1(2H)-yl)ethan-1-one], the GI50 was in the range of 100 to 500 nM.

For the compound `CC(=O)N1c2ccc(-c3ccc(C(=O)NCc4cn5cc(-c6cnc(N)nc6)nc(N6CCOCC6)c5n4)cc3)cc2CC[C@@H]1C` [Cpd 016, (S)-4-(1-Acetyl-2-methyl-1,2,3,4-tetrahydroquinolin-6-yl)-N-((6-(2-aminopyrimidin-5-yl)-8-morpholinoimidazo[1,2-a]pyrazin-2-yl)methyl)benzamide], the GI50 lay within 100 to 500 nM.

In turn, `CC(=O)N1c2ccc(-c3cccc(C(=O)NCc4cn5cc(-c6cnc(N)nc6)nc(N6CCOCC6)c5n4)c3)cc2CC[C@@H]1C` [Cpd 017, (S)-3-(1-Acetyl-2-methyl-1,2,3,4-tetrahydroquinolin-6-yl)-N-((6-(2-aminopyrimidin-5-yl)-8-morpholinoimidazo[1,2-a]pyrazin-2-yl)methyl)benzamide] came in with a GI50 of 100 to 500 nM.

In turn, `CC(=O)N1c2ccc(-c3ccc(CC(=O)NCc4cn5cc(-c6cnc(N)nc6)nc(N6CCOCC6)c5n4)cc3)cc2CC[C@@H]1C` [Cpd 018, (S)-2-(4-(1-Acetyl-2-methyl-1,2,3,4-tetrahydroquinolin-6-yl)phenyl)-N-((6-(2-aminopy-rimidin-5-yl)-8-morpholinoimidazo[1,2-a]pyrazin-2-yl)methyl)acetamide] came in with a GI50 of 100 to 500 nM.

The compound `CC(=O)N1c2ccc(-c3cccc(CC(=O)NCc4cn5cc(-c6cnc(N)nc6)nc(N6CCOCC6)c5n4)c3)cc2CC[C@@H]1C` [Cpd 019, (S)-2-(3-(1-Acetyl-2-methyl-1,2,3,4-tetrahydroquinolin-6-yl)phenyl)-N-((6-(2-aminopy-rimidin-5-yl)-8-morpholinoimidazo[1,2-a]pyrazin-2-yl)methyl)acetamide] displayed a GI50 of 100 to 500 nM.

Consider `CC(=O)N1c2ccc(-c3ccc(NC(=O)Cc4cn5cc(-c6cnc(N)nc6)nc(N6CCOCC6)c5n4)cc3)cc2CC[C@@H]1C` [Cpd 022, (S)-N-(4-(1-acetyl-2-methyl-1,2,3,4-tetrahydroquinolin-6-yl)phenyl)-2-(6-(2-aminopyrimidin-5-yl)-8-morpholinoimidazo[1,2-a]pyrazin-2-yl)acetamide], for which the GI50 is no more than 100 nM.

`CC(=O)N1c2ccc(-c3cccc(NC(=O)Cc4cn5cc(-c6cnc(N)nc6)nc(N6CCOCC6)c5n4)c3)cc2CC[C@@H]1C` [Cpd 023, (S)-N-(3-(1-acetyl-2-methyl-1,2,3,4-tetrahydroquinolin-6-yl)phenyl)-2-(6-(2-aminopyrimidin-5-yl)-8-morpholinoimidazo[1,2-a]pyrazin-2-yl)acetamide] registered a GI50 of 100 to 500 nM.

Compound `CC(=O)N1c2ccc(-c3ccc(CNC(=O)Cc4cn5cc(-c6cnc(N)nc6)nc(N6CCOCC6)c5n4)cc3)cc2CC[C@@H]1C` [Cpd 024, (S)-N-(4-(1-acetyl-2-methyl-1,2,3,4-tetrahydroquinolin-6-yl)benzyl)-2-(6-(2-aminopyrimidin-5-yl)-8-morpholinoimidazo[1,2-a]pyrazin-2-yl)acetamide] returned a GI50 greater than 500 nM.

`CC(=O)N1c2ccc(-c3cccc(CNC(=O)Cc4cn5cc(-c6cnc(N)nc6)nc(N6CCOCC6)c5n4)c3)cc2CC[C@@H]1C` [Cpd 025, (S)-N-(3-(1-acetyl-2-methyl-1,2,3,4-tetrahydroquinolin-6-yl)benzyl)-2-(6-(2-aminopyrimidin-5-yl)-8-morpholinoimidazo[1,2-a]pyrazin-2-yl)acetamide] showed a GI50 of 100 to 500 nM.

Turning to `CC(=O)N1c2ccc(-c3ccc(C(=O)N(C)CCN(C)C(=O)c4cn5cc(-c6cnc(N)nc6)nc(N6CCOCC6)c5n4)cc3)cc2CC[C@@H]1C` [Cpd 036, (S)-N-(2-(4-(1-Acetyl-2-methyl-1,2,3,4-tetrahydroquinolin-6-yl)-N-methylbenzamido)ethyl)-6-(2-aminopyrimidin-5-yl)-N-methyl-8-morpholinoimidazo[1,2-a]pyrazine-2-carboxamide], the GI50 is greater than 500 nM.

Compound `CC(=O)N1c2ccc(-c3ccc(CN(C)C(=O)c4cn5cc(-c6cnc(N)nc6)nc(N6CCOCC6)c5n4)cc3)cc2CC[C@@H]1C` [Cpd 037, (S)-N-(4-(1-acetyl-2-methyl-1,2,3,4-tetrahydroquinolin-6-yl)benzyl)-6-(2-aminopyrimidin-5-yl)-N-methyl-8-morpholinoimidazo[1,2-a]pyrazine-2-carboxamide] yielded a GI50 of 100 to 500 nM.

As to `CC(=O)N1c2ccc(-c3ccc(CN(C)C(=O)c4cc5nc(-c6cnc(N)nc6)nc(N6CCOCC6)c5s4)cc3)cc2CC[C@@H]1C` [Cpd 038, (S)-N-(4-(1-acetyl-2-methyl-1,2,3,4-tetrahydroquinolin-6-yl)benzyl)-2-(2-aminopyrimidin-5-yl)-N-methyl-4-morpholinothieno[3,2-d]pyrimidine-6-carboxamide], the 50% growth inhibitory concentration (GI50) is greater than 500 nM.

`CC(=O)N1c2ccc(-c3ccc(CN(C)C(=O)c4sc5c(N6CCOCC6)nc(-c6cnc(N)nc6)nc5c4C)cc3)cc2CC[C@@H]1C` [Cpd 039, (S)-N-(4-(1-acetyl-2-methyl-1,2,3,4-tetrahydroquinolin-6-yl)benzyl)-2-(2-aminopyrimidin-5-yl)-N,7-dimethyl-4-morpholinothieno[3,2-d]pyrimidine-6-carboxamide] gave a GI50 greater than 500 nM.

With `CC(=O)N1c2ccc(-c3ccc(C(=O)NCCCNC(=O)c4cc5nc(-c6cnc(N)nc6)nc(N6CCOCC6)c5s4)cc3)cc2CC[C@@H]1C` [Cpd 040, (S)-N-(3-(4-(1-Acetyl-2-methyl-1,2,3,4-tetrahydroquinolin-6-yl)benzamido)propyl)-2-(2-aminopyrimidin-5-yl)-4-morpholinothieno[3,2-d]pyrimidine-6-carboxamide], the GI50 is greater than 500 nM.
